# Source: article PMC10208276, “A Very Long-acting Exatecan and Its Synergism with DNA Damage Response Inhibitors” (Cancer Research Communications, 2023)
# Entries after “also recorded” stand apart in the source; their conditions may differ. Where two headings read alike, the source gives them in different places.
# Columns and labels:
# [1] = cited from earlier work
# [2] = system: tumor cells; design: method as in PMID 12234607; conditions: cited from earlier work
# [3] = system: drug-efflux pumps; conditions: cited from earlier work
# [4] = system: BRCA1-deficient MX-1 TNBC xenografts; design: method as in PMID 9685056; conditions: total dose of 25 and 75 mg (57 and 170 μmol)/kg, four times at 4-day intervals, at 28 days; cited from earlier work
# [5] = system: BRCA1-deficient MX-1 TNBC xenografts; test: Antitumor activity of PEG-Exa in the MX-1 murine xenograft, alone and combined with TLZ or VX970; type: in vivo, female scid mice
# From the text: Animals were housed at Murigenics.
# To assess the interaction of the drug combination, we used an additivity index determined as TGcalc/TGobsd where […] and TGcalc is the product of TGobsd values of the individual drugs. Here, an index <1 indicates infra-additive, an index of 1 indicates additivity and an index >1 indicates a supra-additive or synergistic interaction.
# We measured the effects of a combination of PEG-Exa with the PARPi TLZ and the ATRi VX970 on growth of MX-1 xenografts. […] To assess the interaction of a drug combination, we used an additivity index ([28]) determined as TGcalc/TGobsd where TGcalc is the product of TGobsd values of the individual drugs and TGobsd is the observed tumor growth in the presence of both drug. Here, an index <1 indicates infra-additive, an index of 1 indicates additivity and an index >1 indicates a supra-additive or synergistic interaction.
# [6] = system: patient-derived triple-negative breast cancer (TNBC) xenografts; design: method as in PMID 32075943; conditions: cited from earlier work
# [7] = system: relapsed small cell lung cancer; design: method as in PMID 33848478; conditions: combination of topotecan with the ATRi VX-970, 5-day interval of a 21-day cycle; cited from earlier work
# [8] = VX970 64 μmol/kg PO, 4 consecutive days a week, alone
# [9] = single intraperitoneal doses of 10 and 15 μmol/kg
compound,measurement,setting,value
"CC[C@@]1(O)C(=O)OCc2c1cc1n(c2=O)Cc2c-1nc1cc(F)c(C)c3c1c2[C@@H](N)CC3 [Exa, exatecan]",t1/2,[1]; in humans,approximately 10 hours
same,increase of inhibitory potency upon prolonged exposure,[2],about 80 fold
same,substrate for drug-efflux pumps,[3],does not appear to be a substrate
same,effect on MX-1 TNBC xenografts,[4],regression
CCc1c2c(nc3ccc(O)cc13)-c1cc3c(c(=O)n1C2)COC(=O)[C@]3(O)CC [SN-38],apparent t1/2,[1]; SN-38 formed from CPT-11,approximately 12 hours
"Cn1ncnc1[C@H]1c2n[nH]c(=O)c3cc(F)cc(c23)N[C@@H]1c1ccc(F)cc1 [TLZ, talazoparib]",TGobsd,"[5]; 0.4 μmol (0.15 mg)/kg orally every day, Fig. 4A",0.71
CNCc1ccc(-c2cc(-c3nc(-c4ccc(S(=O)(=O)C(C)C)cc4)cnc3N)on2)cc1 [VX970],AUC of median MX-1 Tumor volume,[5]; VX970 16 μmol/kg alone,0.98 Fraction of vehicle control
same,AUC of median MX-1 Tumor volume,[5]; VX970 32 μmol/kg alone,0.96 Fraction of vehicle control
same,TGI,[5]; [8],0
same,"TGobsd, AUC of median MX-1 Tumor volume",[5]; [8],1.04 Fraction of vehicle control
same,effect on growth of MX-1 xenografts,"[5]; VX970 alone, 64 μmol/kg for 4 consecutive days a week",do not affect tumor growth; also recorded: no effect
CCc1c2c(nc3ccc(OC(=O)N4CCC(N5CCCCC5)CC4)cc13)-c1cc3c(c(=O)n1C2)COC(=O)[C@]3(O)CC [irinotecan],responsive xenografts,[6]; xenografts containing both biomarkers,100%
same,response rate,[6]; xenografts with BRCAness,50%
same,response rate,[6]; xenografts with high SLFN11,75%
CC[C@@]1(O)C(=O)OCc2c1cc1n(c2=O)Cc2cc3c(CN(C)C)c(O)ccc3nc2-1 [topotecan],ORR,[7],36%
PEG40kDa-[exatecan]4 (Mod = 4-Cl-C6H4-SO2-) [3A],potency in growth suppression relative to PLX038A (PEG-SN-38),[5]; […] PEG-Exa nearly identical to 15 μmol/kg PLX038A,approximately 6 fold
same,dose lower than dose of free Exa required to suppress MX-1 xenografts,[5]; single 10 μmol/kg versus total 57 μmol/kg free Exa (ref 26),6 fold
same,dose lower than dose of free Exa required to suppress MX-1 xenografts,[5]; single 10 μmol/kg versus total 170 μmol/kg free Exa (ref 26),18 fold
same,duration of tumor growth suppression,[5]; single dose of 10 μmol/kg,over 40 days
same,tumor growth of MX-1 xenografts,[5]; single dose of 10 μmol/kg,complete suppression of tumor growth
same,duration of complete growth inhibition,[5]; [9],> 48 days
same,growth of tumors,[5]; [9],complete growth inhibition
